Experimental data from US12077555B2, “STAT degraders and uses thereof” (Kymera Therapeutics, Inc., priority 2019, dated 2024).

What follows are molecules tested against STAT3 (Homo sapiens, UniProt P40763) (assay: STAT3 HiBiT degradation assay in transfected A549 cells). Conditions: A549, 24 h; read-out: STAT3 HiBiT A549 degradation 24 h: Average external-Abs DC50.
Format: cell-based
Parameters: expressed in transfected cells; host or cells: A549
In short: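 Degradation read as HiBiT-tagged STAT3 luminescence (Nano-Glo lytic reagent, 10 min, room temperature) following 24 h compound treatment of transfected A549 cells at 3-fold, 10 points. Percent remaining signal computed against controls and fitted with a four-parameter logistic; DC50 reported as letter bins (A <0.01 to D >1.0 µM).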

STAT3, sequence (P40763 whole entry): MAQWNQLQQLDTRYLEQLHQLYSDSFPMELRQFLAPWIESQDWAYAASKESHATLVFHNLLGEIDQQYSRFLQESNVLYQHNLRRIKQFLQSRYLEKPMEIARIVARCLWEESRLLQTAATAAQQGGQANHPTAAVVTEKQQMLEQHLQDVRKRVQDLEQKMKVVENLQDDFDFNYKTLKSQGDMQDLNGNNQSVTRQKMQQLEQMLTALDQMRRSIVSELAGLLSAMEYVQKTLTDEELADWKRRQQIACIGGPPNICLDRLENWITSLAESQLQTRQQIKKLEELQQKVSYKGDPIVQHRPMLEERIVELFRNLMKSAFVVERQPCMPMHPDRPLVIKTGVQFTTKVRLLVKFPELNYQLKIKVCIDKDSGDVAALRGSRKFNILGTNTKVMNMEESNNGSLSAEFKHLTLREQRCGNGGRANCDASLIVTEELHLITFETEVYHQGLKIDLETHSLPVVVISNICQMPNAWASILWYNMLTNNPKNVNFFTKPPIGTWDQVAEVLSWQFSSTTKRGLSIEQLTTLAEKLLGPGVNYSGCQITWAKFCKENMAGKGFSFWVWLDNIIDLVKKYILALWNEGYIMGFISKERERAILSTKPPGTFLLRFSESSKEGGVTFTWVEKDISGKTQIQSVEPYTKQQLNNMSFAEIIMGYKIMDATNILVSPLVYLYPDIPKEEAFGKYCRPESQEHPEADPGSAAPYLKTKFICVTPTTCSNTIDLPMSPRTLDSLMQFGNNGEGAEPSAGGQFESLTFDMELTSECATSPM

Question: With Cc1cc(CCCCCC(=O)N[C@H](C(=O)N2C[C@H](O)C[C@H]2C(=O)N[C@@H](C)c2ccc(-c3scnc3C)cc2)C(C)(C)C)cc(NC(=O)[C@H](CCC(N)=O)NC(=O)[C@@H]2Cc3cccc4c3N2C(=O)[C@@H](NC(=O)c2cc3cc(C(=O)P(=O)(O)O)ccc3[nH]2)CC4)c1 [Compound I-258, 2-[[(2S,11S)-2-[[(1S)-3-carbamoyl-1-[[3-(5-[[(2S)-1-[(2S,4R)-4-hydroxy-2-[[(1S)-1-[4-(4-methyl-1,3-thiazol-5-yl)phenyl]ethyl]carbamoyl]pyrrolidin-1-yl]-3,3-dimethyl-1-oxobutan-2-yl]carbamoyl]pentyl)-5-methylphenyl]carbamoyl]propyl]carbamoyl]-12-oxo-1-azatricyclo[6.4.1.0^[4,13]]trideca-4(13),5,7-trien-11-yl]carbamoyl]-1H-indole-5-carbonylphosphonic acid] as the molecule, how does the DC50 read?
Answer: Its DC50 is less than 10 nM.

Question: For Cc1ncsc1-c1ccc([C@H](C)NC(=O)[C@@H]2C[C@@H](O)CN2C(=O)[C@@H](NC(=O)CCCCCc2cccc(NC(=O)[C@H](CCC(N)=O)NC(=O)[C@@H]3Cc4cccc5c4N3C(=O)[C@@H](NC(=O)c3cc4cc(C(=O)P(=O)(O)O)ccc4[nH]3)CC5)c2C)C(C)(C)C)cc1 [Compound I-259], which DC50 is on record?
Answer: The DC50 was 100 to 1000 nM.

Question: With Cc1ncsc1-c1ccc([C@H](C)NC(=O)[C@@H]2C[C@@H](O)CN2C(=O)[C@@H](NC(=O)CCc2cccc(OC[C@H](CCC(N)=O)NC(=O)[C@@H]3Cc4cccc5c4N3C[C@@H](CC(=O)C3Cc4cc(C(=O)P(=O)(O)O)ccc4N3)CC5)c2)C(C)(C)C)cc1 (stereo partly drawn) [Compound I-260, diammonium 2-[[(2S,11S)-2-[[(2S)-4-carbamoyl-1-[3-(2-[[(2S)-1-[(2S,4R)-4-hydroxy-2-[[(1S)-1-[4-(4-methyl-1,3-thiazol-5-yl)phenyl]ethyl]carbamoyl]pyrrolidin-1-yl]-3,3-dimethyl-1-oxobutan-2-yl]carbamoyl]ethyl)phenoxy]butan-2-yl]carbamoyl]-12-oxo-1-azatricyclo[6.4.1.0^[4,13]]trideca-4(13),5,7-trien-11-yl]carbamoyl]-1H-indole-5-carbonylphosphonate] as the molecule, how does the DC50 read?
Answer: Its DC50 is greater than 1000 nM.

Question: For CC(=O)N1CC[C@H]2CC[C@@H](C(=O)N[C@@H](CCC(N)=O)COc3cccc(CCCCC(=O)N[C@H](C(=O)N4C[C@H](O)C[C@H]4C(=O)N[C@@H](C)c4ccc(-c5scnc5C)cc4)C(C)(C)C)c3F)N2C(=O)[C@@H](NC(=O)c2cc3cc(C(=O)P(=O)(O)O)ccc3[nH]2)C1 [Compound I-263, 2-[[(5S,8S,10aR)-3-acetyl-8-[[(2S)-4-carbamoyl-1-[2-fluoro-3-(4-[[(2S)-1-[(2S,4R)-4-hydroxy-2-[[(1S)-1-[4-(4-methyl-1,3-thiazol-5-yl)phenyl]ethyl]carbamoyl]pyrrolidin-1-yl]-3,3-dimethyl-1-oxobutan-2-yl]carbamoyl]butyl)phenoxy]butan-2-yl]carbamoyl]-6-oxo-octahydropyrrolo[1,2-a][1,5]diazocin-5-yl]carbamoyl]-1H-indole-5-carbonylphosphonic acid], which DC50 is on record?
Answer: The DC50 was less than 10 nM.

Question: How did the DC50 turn out when Cc1ncsc1-c1ccc([C@H](C)NC(=O)[C@@H]2C[C@@H](O)CN2C(=O)[C@@H](NC(=O)CCCCCc2cc(F)cc(NC(=O)[C@H](CCC(N)=O)NC(=O)[C@@H]3Cc4cccc5c4N3C(=O)[C@@H](NC(=O)c3cc4cc(C(=O)P(=O)(O)O)ccc4[nH]3)CC5)c2)C(C)(C)C)cc1 [Compound I-264, 63 2-[[(2S,11S)-2-[[(1S)-3-carbamoyl-1-[[3-fluoro-5-(5-[[(2S)-1-[(2S,4R)-4-hydroxy-2-[[(1S)-1-[4-(4-methyl-1,3-thiazol-5-yl)phenyl]ethyl]carbamoyl]pyrrolidin-1-yl]-3,3-dimethyl-1-1-oxobutan-2-yl]carbamoyl]pentyl)phenyl]carbamoyl]propyl]carbamoyl]-12-oxo-1-azatricyclo[6.4.1.0^[4,13]]trideca-4(13),5,7-trien-11-yl]carbamoyl]-1H-indole-5-carbonylphosphonic acid 7] was run?
Answer: Its DC50 is 10 to 100 nM.

Question: With Cc1ncsc1-c1ccc([C@H](C)NC(=O)[C@@H]2C[C@@H](O)CN2C(=O)[C@@H](NC(=O)CCCCCc2cccc(NC[C@H](CCC(N)=O)NC(=O)[C@@H]3Cc4cccc5c4N3C(=O)[C@@H](NC(=O)c3cc4cc(C(=O)P(=O)(O)O)ccc4[nH]3)CC5)c2F)C(C)(C)C)cc1 [Compound I-265, diammonium 2-[[(2S,11S)-2-[(4-carbamoyl-1-[[2-fluoro-3-(5-[[(2S)-1-[(2S,4R)-4-hydroxy-2-[[(1S)-1-[4-(4-methyl-1,3-thiazol-5-yl)phenyl]ethyl]carbamoyl]pyrrolidin-1-yl]-3,3-dimethyl-1-oxobutan-2-yl]carbamoyl]pentyl)phenyl]amino]butan-2-yl)carbamoyl]-12-oxo-1-azatricyclo[6.4.1.0^[4,13]]trideca-4(13),5,7-trien-11-yl]carbamoyl]-1H-indole-5-carbonylphosphonate] as the molecule, how does the DC50 read?
Answer: The DC50 was 10 to 100 nM.

Question: Which DC50 does the source give for Cc1cc(CCCCCC(=O)N[C@H](C(=O)N2C[C@H](O)C[C@H]2C(=O)N[C@@H](C)c2ccc(-c3scnc3C)cc2)C(C)(C)C)c(F)c(OC[C@H](CCC(N)=O)NC(=O)[C@@H]2Cc3cccc4c3N2C(=O)[C@@H](NC(=O)c2cc3cc(C(=O)P(=O)(O)O)ccc3[nH]2)CC4)c1 [Compound I-266, 2-[[(2S,11S)-2-[[(2S)-4-carbamoyl-1-[2-fluoro-3-(5-[[(2S)-1-[(2S,4R)-4-hydroxy-2-[[(1S)-1-[4-(4-methyl-1,3-thiazol-5-yl)phenyl]ethyl]carbamoyl]pyrrolidin-1-yl]-3,3-dimethyl-1-oxobutan-2-yl]carbamoyl]pentyl)-5-methylphenoxy]butan-2-yl]carbamoyl]-12-oxo-1-azatricyclo[6.4.1.[4,13]]trideca-4(13),5,7-trien-11-yl]carbamoyl]-1H-indole-5-carbonylphosphonic acid] here?
Answer: The DC50 was less than 10 nM.

Question: For Cc1ncsc1-c1ccc([C@H](C)NC(=O)[C@@H]2C[C@@H](O)CN2C(=O)[C@@H](NC(=O)CCCCCc2cc(F)cc(OC[C@H](CCC(N)=O)NC(=O)[C@@H]3Cc4cccc5c4N3C(=O)[C@@H](NC(=O)c3cc4cc(C(=O)P(=O)(O)O)ccc4[nH]3)CC5)c2F)C(C)(C)C)cc1 [Compound I-267], which DC50 is on record?
Answer: Its DC50 is less than 10 nM.

Question: With Cc1ncsc1-c1ccc([C@H](C)NC(=O)[C@@H]2C[C@@H](O)CN2C(=O)[C@@H](NC(=O)CCCCCc2ccnc([C@H](CCC(N)=O)NC(=O)[C@@H]3Cc4cccc5c4N3C(=O)[C@@H](NC(=O)c3cc4cc(C(=O)P(=O)(O)O)ccc4[nH]3)CC5)c2)C(C)(C)C)cc1 [Compound I-268, 2-[[(2S,11S)-2-[[(1S)-3-carbamoyl-1-[4-(5-[[(2S)-1-[(2S,4R)-4-hydroxy-2-[[(1S)-1-[4-(4-methyl-1,3-thiazol-5-yl)phenyl]ethyl]carbamoyl]pyrrolidin-1-yl]-3,3-dimethyl-1-oxobutan-2-yl]carbamoyl]pentyl)pyridin-2-yl]propyl]carbamoyl]-12-oxo-1-azatricyclo [6.4.1.0^[4,13]]trideca-4(13),5,7-trien-11-yl]carbamoyl]-1H-indole-5-carbonylphosphonic acid] as the molecule, how does the DC50 read?
Answer: Its DC50 is 100 to 1000 nM.

Question: With Cn1c(=O)n(C2CCC(=O)NC2=O)c2ccc(CCCCCCOc3ccc4c5c3CC[C@H](NC(=O)c3cc6cc(C(=O)P(=O)(O)O)ccc6[nH]3)C(=O)N5[C@H](C(=O)N[C@@H](CCC(N)=O)C(=O)NC(c3ccccc3)c3ccccc3)C4)cc21 (stereo partly drawn) [Compound I-269, 2-[[(2S,11S)-2-[[(1S)-3-Carbamoyl-1-(diphenylmethylcarbamoyl)propyl]carbamoyl]-7-([6-[1-(2,6-dioxopiperidin-3-yl)-3-methyl-2-oxo-1,3-benzodiazol-5-yl]hexyl]oxy)-12-oxo-1-azatricyclo[6.4.1.0^[4,13]]trideca-4(13),5,7-trien-11-yl]carbamoyl]-1H-indole-5-carbonylphosphonic acid] as the molecule, how does the DC50 read?
Answer: The DC50 was greater than 1000 nM.

Question: Which DC50 does the source give for Cn1c(=O)n(C2CCC(=O)NC2=O)c2ccc(CCCCOc3ccc4c5c3CC[C@H](NC(=O)c3cc6cc(C(=O)P(=O)(O)O)ccc6[nH]3)C(=O)N5[C@H](C(=O)N[C@@H](CCC(N)=O)C(=O)NC(c3ccccc3)c3ccccc3)C4)cc21 (stereo partly drawn) [Compound I-270, 2-[[(2S,11S)-2-[[(1S)-3-carbamoyl-1-(diphenylmethylcarbamoyl)propyl]carbamoyl]-7-[4-[1-(2,6-dioxopiperidin-3-yl)-3-methyl-2-oxo-1,3-benzodiazol-5-yl]butoxy]-12-oxo-1-azatricyclo[6.4.1.0^[4,13]]trideca-4(13),5,7-trien-11-yl]carbamoyl]-1H-indole-5-carbonylphosphonic acid] here?
Answer: The DC50 was 100 to 1000 nM.

Question: For Cn1c(=O)n(C2CCC(=O)NC2=O)c2ccc([C@H]3CC[C@H](CCCC(=O)N4CC[C@H]5CC[C@@H](C(=O)NC(CCC(N)=O)C(=O)NC(c6ccccc6)c6ccccc6)N5C[C@@H](NC(=O)c5cc6cc(C(=O)P(=O)(O)O)ccc6[nH]5)C4)CC3)cc21 (some centres unmarked) [Compound I-271], which DC50 is on record?
Answer: Its DC50 is 100 to 1000 nM.

Question: With CC(=O)O[C@@H]1C[C@@H](C(=O)N[C@@H](C)c2ccc(-c3scnc3C)cc2)N(C(=O)[C@@H](NC(=O)CCCCCc2cccc(OC[C@H](CCC(N)=O)NC(=O)[C@@H]3Cc4cccc5c4N3C(=O)[C@@H](NC(=O)c3cc4cc(C(=O)P(=O)(O)O)ccc4[nH]3)CC5)c2F)C(C)(C)C)C1 [Compound I-272] as the molecule, how does the DC50 read?
Answer: Its DC50 is less than 10 nM.

Question: Which DC50 does the source give for Cn1c(=O)n(C2CCC(=O)NC2=O)c2ccc([C@H]3CC[C@@H](CCC(=O)N4CC[C@H]5CC[C@@H](C(=O)N[C@@H](CCC(N)=O)C(=O)NC(c6ccccc6)c6ccccc6)N5C(=O)[C@@H](NC(=O)c5cc6cc(C(=O)P(=O)(O)O)ccc6[nH]5)C4)CC3)cc21 (stereo partly drawn) [Compound I-273, 2-[[(5S,8S,10aR)-8-[[(1S)-3-carbamoyl-1-(diphenylmethylcarbamoyl)propyl]carbamoyl]-6-oxo-3-[3-[(1s,4s)-4-[1-(2,6-dioxopiperidin-3-yl)-3-methyl-2-oxo-1,3-benzodiazol-5-yl]cyclohexyl]propanoyl]-octahydropyrrolo[1,2-a][1,5]diazocin-5-yl]carbamoyl]-1H-indole-5-carbonylphosphonic acid] here?
Answer: Its DC50 is 100 to 1000 nM.
